Test results published in ChEMBL document CHEMBL1649145, “Interactions between triazoles and amphotericin B in treatment of disseminated murine infection by Fusarium oxysporum” (2009).
In brackets after ≈: the same amount, converted by molar mass. Activity calls are given as the source filed them. No cut-off for these calls is given here.

Legend:
[1] = system: Fusarium oxysporum; experiment: Antimicrobial activity against Fusarium oxysporum FMR 10281 by microdilution method; format: functional
[2] = system: Fusarium oxysporum; experiment: Antimicrobial activity against Fusarium oxysporum FMR 5205 by microdilution method in presence of voriconazole; format: functional
[3] = system: Fusarium oxysporum; experiment: Antimicrobial activity against Fusarium oxysporum FMR 10281 by microdilution method in presence of posaconazole; format: functional
[4] = system: Fusarium oxysporum; experiment: Antimicrobial activity against Fusarium oxysporum FMR 5205 by microdilution method; format: functional
[5] = system: Fusarium oxysporum; experiment: Antimicrobial activity against Fusarium oxysporum FMR 5205 by microdilution method in presence of posaconazole; format: functional
[6] = system: Fusarium oxysporum; experiment: Antimicrobial activity against Fusarium oxysporum FMR 10281 by microdilution method in presence of voriconazole; format: functional
[7] = system: Fusarium oxysporum; experiment: Antimicrobial activity against 1X 10^7 CFU Fusarium oxysporum FMR 10281 infected in immunosuppressed-OF1 mouse assessed as prolonged survival of mouse at 3 mg/kg, ip administered 1 day post infection measured 20 days post […] infection; format: functional, organism-based; parameters: dose 3 mg/kg
[8] = system: Fusarium oxysporum; experiment: Antimicrobial activity against 1X 10^7 CFU Fusarium oxysporum FMR 10281 infected in immunosuppressed-OF1 mouse assessed as prolonged survival of mouse at 100 mg/kg, po administered 1 day post infection measured 20 days post […] infection; format: functional, organism-based; parameters: dose 100 mg/kg
[9] = system: Fusarium oxysporum; experiment: Antimicrobial activity against 1X 10^7 CFU Fusarium oxysporum FMR 10281 infected in immunosuppressed-OF1 mouse assessed as reduction in spleen fungal burden at 100 mg/kg, po administered 1 day post infection measured on day 6 post dosing; format: functional, organism-based; parameters: dose 100 mg/kg
[10] = system: Fusarium oxysporum; experiment: Antimicrobial activity against 1X 10^7 CFU Fusarium oxysporum FMR 5205 infected in immunosuppressed-OF1 mouse assessed as reduction in spleen fungal burden at 100 mg/kg, po administered 1 day post infection measured on day 6 post dosing; format: functional, organism-based; parameters: dose 100 mg/kg
[11] = system: Fusarium oxysporum; experiment: Antimicrobial activity against 1X 10^7 CFU Fusarium oxysporum FMR 5205 infected in immunosuppressed-OF1 mouse assessed as reduction in kidney fungal burden at 100 mg/kg, po administered 1 day post infection measured on day 6 post dosing; format: functional, organism-based; parameters: dose 100 mg/kg
[12] = system: Fusarium oxysporum; experiment: Antimicrobial activity against 1X 10^7 CFU Fusarium oxysporum FMR 5205 infected in immunosuppressed-OF1 mouse assessed as reduction in kidney fungal burden at 60 mg/kg, po administered 1 day post infection measured on day 6 post dosing; format: functional, organism-based; parameters: dose 60 mg/kg
[13] = system: Fusarium oxysporum; experiment: Antimicrobial activity against 1X 10^7 CFU Fusarium oxysporum FMR 10281 infected in immunosuppressed-OF1 mouse assessed as prolonged survival of mouse at 60 mg/kg, po administered 1 day post infection measured 20 days post […] infection; format: functional, organism-based; parameters: dose 60 mg/kg
[14] = system: Fusarium oxysporum; experiment: Antimicrobial activity against 1X 10^7 CFU Fusarium oxysporum FMR 10281 infected in immunosuppressed-OF1 mouse assessed as reduction in spleen fungal burden at 3 mg/kg, ip administered 1 day post infection measured on day 6 post dosing; format: functional, organism-based; parameters: dose 3 mg/kg
[15] = system: Fusarium oxysporum; experiment: Antimicrobial activity against 1X 10^7 CFU Fusarium oxysporum FMR 5205 infected in immunosuppressed-OF1 mouse assessed as reduction in spleen fungal burden at 3 mg/kg, ip administered 1 day post infection measured on day 6 post dosing; format: functional, organism-based; parameters: dose 3 mg/kg

In the case of `C[C@@H]1[C@H](O)[C@@H](C)/C=C/C=C/C=C/C=C/C=C/C=C/C=C/[C@H](O[C@@H]2O[C@H](C)[C@@H](O)[C@H](N)[C@@H]2O)C[C@@H]2O[C@](O)(C[C@@H](O)C[C@@H](O)[C@H](O)CC[C@@H](O)C[C@@H](O)CC(=O)O[C@H]1C)C[C@H](O)[C@H]2C(=O)O` [AMPHOTERICIN B], the MIC [1] is reported as 4 µg/mL (≈ 4.33 µM), the MIC [2] is reported as 2 µg/mL and the MIC [3] is reported as 4 µg/mL. The MIC [4] was 2 µg/mL (≈ 2.16 µM), the MIC [5] was 2 µg/mL and the MIC [6] was 4 µg/mL. The Activity [7] was “inactive”.

For `CC[C@@H]([C@H](C)O)n1ncn(-c2ccc(N3CCN(c4ccc(OC[C@@H]5CO[C@@](Cn6cncn6)(c6ccc(F)cc6F)C5)cc4)CC3)cc2)c1=O` [POSACONAZOLE], the MIC [1] was > 16 µg/mL, the Activity [8] was “Active” and the Activity [9] was “Active”. The MIC [4] was 2 µg/mL (≈ 2.85 µM), the Activity [10] was “Active” and the Activity [11] was “Active”.

With `C[C@@H](c1ncncc1F)[C@](O)(Cn1cncn1)c1ccc(F)cc1F` [VORICONAZOLE] the MIC [1] was 16 µg/mL (≈ 45.8 µM), the Activity [12] was “Active” and the MIC [4] was 4 µg/mL (≈ 11.5 µM). For the same molecule, the Activity [13] was “inactive”, the Activity [14] was “Active” and the Activity [15] was “Active”.
